pKi: −log10 of the molar value. Values after ≈ are worked out from the molar mass of the structure shown.
Key:
B. cenocepacia K56-2 = experiment: MIC by broth microdilution, parental strain; type: cell-based, Burkholderia cenocepacia; settings: broth microdilution in cation-adjusted MHB at 18 to 24 h; for MIC: Burkholderia cenocepacia, K562
K56-2 pSCRhaB2 = experiment: MIC by E test; type: cell-based; settings: Burkholderia cenocepacia, 24 h, read-out: MIC by Etest, K56-2 pSCRhaB2
ΔbcnA pSCRhaB2 = experiment: MIC by E test; type: cell-based, Burkholderia cenocepacia; settings: 24 h
ΔbcnA pbcnA (Sa) = experiment: MIC by E test; type: cell-based, Burkholderia cenocepacia; settings: 24 h
BcnA [1] = biological target: T1, BcnA (Burkholderia cenocepacia, UniProt B4EE32); experiment: In vitro binding assay: Nile red displacement from BcnA; settings: against 1.5 µM Nile red binding to 1.5 µM BcnA in PBS; read-out: binding inhibition constant (Ki)
T1 sequence (B4EE32 27-186): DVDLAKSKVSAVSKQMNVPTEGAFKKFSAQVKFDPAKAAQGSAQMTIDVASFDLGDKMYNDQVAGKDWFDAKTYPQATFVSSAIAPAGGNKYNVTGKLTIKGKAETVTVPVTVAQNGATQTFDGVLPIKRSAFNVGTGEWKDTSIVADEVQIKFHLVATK
Procedure: In vitro binding assays were performed as previously described ([23]), with a few modifications. Purified BCNs were prepared in phosphate-buffered saline (PBS, pH 7.4). Phospholipids and Nile red were prepared in DMSO. […] All spectra were corrected for background fluorescence determined from probe-into-buffer titrations. Fluorescence was measured with a Cary Eclipse fluorescence spectrophotometer (Varian) set at an excitation wavelength (λex) specific for each probe, as follows: Nile red, 550 nm; BODIPY phospholipids, 500 nm for fatty acyl BODIPY-labeled phosphocholine and 505 nm for head group BODIPY-labeled phosphoethanolamine. The emission spectrum for each probe was collected across the following wavelengths (λem): Nile red, 590 to 750 nm; BODIPY phospholipids, 510 to 665 nm. The background-corrected binding fluorescence with each probe was fitted to a one-site binding model as previously described for human AGP ([23]). The equilibrium binding affinity constant for the probe-BCN complex (Kd), the probe concentration needed to achieve half-maximum binding at equilibrium, was determined by nonlinear least-squares regression analysis of the binding isotherms with GraphPad Prism v 5.0 software (GraphPad Software, Inc.).
For probe displacement experiments, antibiotic solutions and fat-soluble vitamins (prepared in DMSO) diluted in PBS, pH 7.4, were titrated against a BCN-probe complex at a saturating concentration necessary to obtain the maximum fluorescence when bound. Probe displacement was measured as the corresponding decrease in fluorescence upon the progressive increase in the antibiotic concentration. The binding inhibition constants (Kis) of the test compounds were determined by nonlinear regression analysis with competition-binding equations for one-site binding calculated by GraphPad Prism v 5.0 software. The lower the Ki values, the higher the affinity of the molecule for BcnA. All fluorometric assays were conducted in duplicate three independent times.

bcnA::luxCDABE = experiment: Luciferase expression assay, bcnA::luxCDABE; type: cell-based, Burkholderia cenocepacia; settings: antibiotic at concentrations near the MIC (sublethal), 3 h
bcnB::luxCDABE = experiment: Luciferase expression assay, bcnB::luxCDABE; type: cell-based, Burkholderia cenocepacia; settings: antibiotic at concentrations near the MIC (sublethal), 3 h
BcnA [2] = biological target: T1, BcnA; experiment: Antibiotic bioassay of sequestration by BcnA; type: binding; settings: 1.5 µM BcnA, 30 min at 37°C, 10-kDa cutoff filtration
Procedure: Antibiotic test solutions with or without 1.5 µM BcnA were incubated for 30 min at 37°C with rotation. The solutions were filtered through filter units with a 10-kDa cutoff by centrifugation at 7,500 × g, at 4°C for 10 min. The antibiotic concentrations in the filtrates were determined by spotting 5 µl onto sterile filter discs placed on agar plates swabbed with the test bacteria. Petri dishes (15-cm diameter) containing 40 ml of LB agar were swabbed with bacterial suspensions with an OD600 of 0.04. The plates were incubated at 37°C for 24 h. Each plate included four discs containing standard concentrations of the antibiotic alongside the discs impregnated with test and control antibiotic solutions. E. coli DH5α was used for bioassays of PmB, norfloxacin, ceftazidime, and gentamicin, and S. aureus USA300 was used for bioassays of rifampin. The theoretical disc contents of the test antibiotic solutions were 10, 5, 2, 30, and 10 µg for PmB, rifampin, norfloxacin, ceftazidime, and gentamicin, respectively. Standard antibiotic discs contained a 2-fold higher concentration than, the same concentration as, or a 2- or 4-fold lower concentration than the test antibiotic discs. After incubation, the clear zones of inhibition were measured and the antibiotic concentrations were determined from standard curves constructed from the standard antibiotic discs.

[3] = test system: B. cenocepacia ΔbcnA mutant; experiment: MIC by broth microdilution, ΔbcnA mutant; type: cell-based, Burkholderia cenocepacia
[4] = test system: B. cenocepacia ΔbcnB mutant; experiment: MIC by broth microdilution, ΔbcnB mutant; type: cell-based, Burkholderia cenocepacia; settings: broth microdilution in cation-adjusted MHB at 18 to 24 h

Row | Molecule | MIC (B. cenocepacia K56-2) [µg/mL] | pKi (BcnA [1]) | expression of bcnA::luxCDABE upon exposure to antibiotic (bcnA::luxCDABE) | antibiotic sequestration by BcnA (BcnA [2]) | further results
1 | CC[C@H]1OC(=O)[C@H](C)[C@@H](O[C@H]2C[C@@](C)(OC)[C@@H](O)[C@H](C)O2)[C@H](C)[C@@H](O[C@@H]2O[C@H](C)C[C@H](N(C)C)[C@H]2O)[C@](C)(O)C[C@@H](C)CN(C)[C@H](C)[C@@H](O)[C@]1(C)O [Azithromycin, azithromycin] | 64 (≈ 85.4 µM) |  |  |  | 
2 | CC(C)(O/N=C(\C(=O)N[C@@H]1C(=O)N2C(C(=O)[O-])=C(C[n+]3ccccc3)CS[C@H]12)c1csc(N)n1)C(=O)O [Ceftazidime, ceftazidime] | 32 (≈ 58.5 µM) | 1.77 | upregulated | sequestered | MIC (K56-2 pSCRhaB2): 8 µg/mL (≈ 14.6 µM); MIC by Etest, ΔbcnA pSCRhaB2 (ΔbcnA pSCRhaB2): 2 μg/ml; MIC by Etest, ΔbcnA pbcnA (Sa) (ΔbcnA pbcnA (Sa)): 8 µg/mL (≈ 14.6 µM); expression of bcnB::luxCDABE upon exposure to antibiotic (bcnB::luxCDABE): increased
3 | O=C(O)c1cn(C2CC2)c2cc(N3CCNCC3)c(F)cc2c1=O [Cipro, ciprofloxacin] |  |  |  |  | MIC (K56-2 pSCRhaB2): 4 µg/mL (≈ 12.1 µM); MIC by Etest, ΔbcnA pSCRhaB2 (ΔbcnA pSCRhaB2): 2 μg/ml; MIC by Etest, ΔbcnA pbcnA (Sa) (ΔbcnA pbcnA (Sa)): 4 µg/mL (≈ 12.1 µM)
4 | CNC(C)C1CCC(N)C(OC2C(N)CC(N)C(OC3OCC(C)(O)C(NC)C3O)C2O)O1 (centres unmarked) [Gentamicin, gentamicin] | 2050 (≈ 4290 µM) |  | remained unchanged | not | 
5 | C[C@@H](O)[C@H]1C(=O)N2C(C(=O)O)=C(S[C@@H]3CN[C@H](C(=O)N(C)C)C3)[C@H](C)[C@H]12 [Meropenem, meropenem] | 1 (≈ 2.61 µM) |  |  |  | 
6 | CN(C)c1ccc(O)c2c1C[C@H]1C[C@H]3[C@H](N(C)C)C(O)=C(C(N)=O)C(=O)[C@@]3(O)C(O)=C1C2=O [Minocycline, minocycline] | 2 (≈ 4.37 µM) |  |  |  | 
7 | CCn1cc(C(=O)O)c(=O)c2cc(F)c(N3CCNCC3)cc21 [Norfloxacin, norfloxacin] | 128 (≈ 401 µM) | 3.40 | upregulated | sequestered | expression of bcnB::luxCDABE upon exposure to antibiotic (bcnB::luxCDABE): increased
8 | CO[C@H]1/C=C/O[C@@]2(C)Oc3c(C)c(O)c4c(O)c(c(/C=N/N5CCN(C)CC5)c(O)c4c3C2=O)NC(=O)/C(C)=C\C=C\[C@H](C)[C@H](O)[C@@H](C)[C@@H](O)[C@@H](C)[C@H](OC(C)=O)[C@@H]1C [Rifampicin, rifampin] | 256 (≈ 311 µM) | 4.78 | upregulated | sequestered | MIC (K56-2 pSCRhaB2): ≥ 64 µg/mL; MIC by Etest, ΔbcnA pSCRhaB2 (ΔbcnA pSCRhaB2): 16 μg/ml; MIC by Etest, ΔbcnA pbcnA (Sa) (ΔbcnA pbcnA (Sa)): ≥ 64 µg/mL
9 | COc1cc(Cc2cnc(N)nc2N)cc(OC)c1OC [Trimethoprim, trimethoprim] | 8 (≈ 27.6 µM) |  |  |  | 
10 | Cc1c(C)c2c(c(C)c1O)CC[C@@](C)(CCC[C@H](C)CCC[C@H](C)CCCC(C)C)O2 [Vit E, α-tocopherol] |  | 6.38 |  |  | 
11 | menaquinone [Vit K2] |  | 6.24 |  |  | 
12 | polymyxin B [PmB] |  |  | upregulated | sequestered | MIC K56-2 (B. cenocepacia K56-2): ≥ 4096 µg/mL; MIC ΔbcnA ([3]; broth microdilution in cation-adjusted MHB at 18 to 24 h): 2048 µg/mL; MIC reduction in the ΔbcnA mutant ([3]; ΔbcnA mutant relative to parental strain): 4 fold; MIC ΔbcnB [4]: ≥ 4096 µg/mL
